{"source": "ChEMBL document CHEMBL5512654", "about": "“Discovery of novel Thymol-TPP antibiotics that eradicate MRSA persisters” (Eur J Med Chem, 2024)", "key": {"[1]": {"tested_on": "Staphylococcus aureus", "assay": "Induction of cell membrane permeability in methicillin-resistant Staphylococcus aureus USA 3390 assessed as increase in leakage of 260 nm absorbing material at 1 to 8 times of MIC", "type": "functional, organism-based", "settings": "time <= 6.0 hrs, TDE = time-dependent effect"}, "[2]": {"tested_on": "Staphylococcus aureus", "assay": "Drug resistance, ratio of MIC for methicillin-resistant Staphylococcus aureus USA 3390 after […] exposure to MIC for methicillin-resistant Staphylococcus aureus USA 3390 after first exposure", "type": "functional"}, "[3]": {"tested_on": "Cell membrane", "assay": "Induction of plasma membrane damage in methicillin-resistant Staphylococcus aureus USA 3390 at logarithmic growth phase at 4 times of MIC measured after 1 hr by Scanning electron micrographic analysis", "type": "cell membranes"}, "[4]": {"tested_on": "Staphylococcus aureus", "assay": "Antibacterial activity against methicillin-resistant Staphylococcus aureus USA 3390 assessed as eradication of persistence by measuring rapid killing effect 8 times of MIC concentration measured upto 7 hrs", "type": "functional, organism-based"}, "[5]": {"tested_on": "Staphylococcus aureus", "assay": "Induction of cell membrane permeability in methicillin-resistant Staphylococcus aureus USA 3390 assessed as increase absorption in leakage of 260 nm absorbing material at 1 to 8 times of MIC measured at 4 hrs", "type": "functional, organism-based"}, "[6]": {"tested_on": "Pseudomonas aeruginosa", "assay": "Antibacterial activity against Pseudomonas aeruginosa ATCC 27853 assessed as inhibition of bacterial growth measured after 18 hrs by microplate reader", "type": "functional", "settings": "read-out: MIC100"}, "[7]": {"assay": "Toxicity in mouse infected with bioluminescent Staphylococcus aureus Xen29 assessed as change in body weight at 8 mg/kg, sc treated 16, 24, 36, 48, […] and 72 hrs post-infection measured after 84 hrs", "type": "organism-based", "settings": "in vivo"}, "[8]": {"tested_on": "Cell membrane", "assay": "Induction of cell membrane damage in methicillin-resistant Staphylococcus aureus USA 3390 assessed as increase in fluorescence intensity at 1 to 8 times of MIC concentration measured at 5 mins by SYTOX green assay", "type": "cell membranes"}, "[9]": {"tested_on": "Pseudomonas aeruginosa", "assay": "Antibacterial activity against Pseudomonas aeruginosa 535 assessed as inhibition of bacterial growth measured after 18 hrs by microplate reader", "type": "functional", "settings": "read-out: MIC100"}, "[10]": {"tested_on": "Staphylococcus aureus", "assay": "Antibacterial activity against methicillin-resistant Staphylococcus aureus USA 3390 assessed as eradication of persistence by measuring rapid killing effect 4 times of MIC concentration relative to control", "type": "functional"}, "[11]": {"tested_on": "Cell membrane", "assay": "Induction of cell membrane permeability in methicillin-resistant Staphylococcus aureus USA 3390 persisters assessed as increase in leakage (DNA) of 260 nm absorbing material at 1 to 8 times of MIC measured upto 5 hrs", "type": "cell membranes"}, "[12]": {"tested_on": "Staphylococcus aureus", "assay": "Bactericidal activity against methicillin-resistant Staphylococcus aureus USA 3390 assessed as reduction in CFU at 4 times of MIC concentration measured after 24 hrs by time-kill kinetics assay", "type": "functional, organism-based"}, "[13]": {"tested_on": "Staphylococcus aureus", "assay": "Bactericidal activity against methicillin-resistant Staphylococcus aureus USA 3390 assessed as reduction in CFU at 1 times of MIC concentration measured after 1 hrs by time-kill kinetics assay", "type": "functional, organism-based"}, "[14]": {"tested_on": "Staphylococcus aureus", "assay": "Bactericidal activity against methicillin-resistant Staphylococcus aureus USA 3390 assessed as reduction in CFU at 1 times of MIC concentration measured after 24 hrs by time-kill kinetics assay", "type": "functional, organism-based"}, "[15]": {"tested_on": "Cell membrane", "assay": "Induction of cell membrane damage in methicillin-resistant Staphylococcus aureus USA 3390 assessed as increase in fluorescence intensity at 1 to 8 times of MIC concentration measured upto 120 mins by SYTOX green assay relative to control", "type": "cell membranes"}, "[16]": {"tested_on": "Staphylococcus aureus", "assay": "In vivo antibacterial efficacy in bioluminescent Staphylococcus aureus Xen29 infected in mouse topical infection model assessed as reduction in number of colonies at 8 mg/kg, sc treated 16, 24, 36, 48, […] hrs post-infection measured after 84 hrs relative to control", "type": "functional"}, "[17]": {"tested_on": "Acinetobacter baumannii", "assay": "Antibacterial activity against Acinetobacter baumannii ATCC 1318 assessed as inhibition of bacterial growth measured after 18 hrs by microplate reader", "type": "functional", "settings": "read-out: MIC100"}, "[18]": {"tested_on": "Staphylococcus aureus", "assay": "Antibacterial activity against methicillin-resistant Staphylococcus aureus USA 3390 assessed as eradication of persistence by measuring rapid killing effect 4 times of MIC concentration measured upto 7 hrs", "type": "functional, organism-based"}, "[19]": {"tested_on": "Staphylococcus aureus", "assay": "Bactericidal activity against methicillin-resistant Staphylococcus aureus USA 3390 assessed as reduction in CFU at 4 times of MIC concentration measured upto 1 hrs by time-kill kinetics assay", "type": "functional"}, "[20]": {"tested_on": "Klebsiella pneumoniae", "assay": "Antibacterial activity against Klebsiella pneumonia 3026 assessed as inhibition of bacterial growth measured after 18 hrs by microplate reader", "type": "functional", "settings": "read-out: MIC100"}, "[21]": {"tested_on": "Klebsiella pneumoniae", "assay": "Antibacterial activity against Klebsiella pneumonia ATCC 700603 assessed as inhibition of bacterial growth measured after 18 hrs by microplate reader", "type": "functional", "settings": "read-out: MIC100"}, "[22]": {"assay": "Cytotoxicity against human L02 cells incubated for 72 hrs by MTT dye reduction assay", "type": "toxicity, cell-based"}, "[23]": {"tested_on": "Cell membrane", "assay": "Induction of cell membrane permeability of methicillin-resistant Staphylococcus aureus USA 3390 persisters assessed as increase in fluorescence intensity at 4 to 8 ug/ml measured at 30 mins by SYTOX green assay relative to control", "type": "cell membranes", "settings": "dose 4-8 µg/ml"}, "[24]": {"tested_on": "Escherichia coli", "assay": "Antibacterial activity against Escherichia coli ATCC 25922 assessed as inhibition of bacterial growth measured after 18 hrs by microplate reader", "type": "functional", "settings": "read-out: MIC100"}, "[25]": {"tested_on": "Cell membrane", "assay": "Induction of cell membrane depolarization in methicillin-resistant Staphylococcus aureus USA 3390 assessed as increase in fluorescence intensity at 1 to 8 times of MIC concentration measured upto 60 mins by DiSC3-5 dye based fluorescence analysis", "type": "cell membranes"}, "[26]": {"tested_on": "Staphylococcus aureus", "assay": "Bactericidal activity against methicillin-resistant Staphylococcus aureus USA 3390 assessed as reduction in CFU at 4 to 8 times of MIC concentration measured after 24 hrs by time-kill kinetics assay", "type": "functional, organism-based"}, "[27]": {"tested_on": "Staphylococcus aureus", "assay": "In vivo antibacterial efficacy in bioluminescent Staphylococcus aureus Xen29 infected in mouse topical infection model assessed as decrease in fluorescence intensity at 8 mg/kg, sc treated 16, 24, 36, 48, […] hrs post-infection measured after 84 hrs", "type": "functional, organism-based"}, "[28]": {"tested_on": "Staphylococcus aureus", "assay": "Induction of cell membrane permeability in methicillin-resistant Staphylococcus aureus USA 3390 assessed as increase in leakage of 260 nm absorbing material at measured upto 6 hrs", "type": "functional, organism-based"}, "[29]": {"tested_on": "Staphylococcus aureus", "assay": "Bactericidal activity against methicillin-resistant Staphylococcus aureus USA 3390 assessed as reduction in CFU at 2 times of MIC concentration measured after 24 hrs by time-kill kinetics assay", "type": "functional, organism-based"}, "[30]": {"tested_on": "Staphylococcus aureus", "assay": "Antibacterial activity against methicillin-resistant Staphylococcus aureus USA 3390 assessed as eradication of persistence by measuring rapid killing effect 8 times of MIC concentration relative to control", "type": "functional"}, "[31]": {"tested_on": "Cell membrane", "assay": "Induction of cell membrane damage in methicillin-resistant Staphylococcus aureus USA 3390 assessed as rough/shrunken and wrinkled surface at logarithmic growth phase at 4 times of MIC measured after 1 hr by Scanning electron micrographic analysis", "type": "cell membranes"}, "[32]": {"tested_on": "Staphylococcus aureus", "assay": "In vivo antibacterial efficacy in bioluminescent Staphylococcus aureus Xen29 infected in mouse topical infection model assessed as wound scabbing at 8 mg/kg, sc treated 16, 24, 36, 48, […] hrs post-infection measured after 84 hrs", "type": "functional, organism-based"}, "[33]": {"tested_on": "Acinetobacter baumannii", "assay": "Antibacterial activity against Acinetobacter baumannii ATCC 19606 assessed as inhibition of bacterial growth measured after 18 hrs by microplate reader", "type": "functional", "settings": "read-out: MIC100"}, "[34]": {"tested_on": "Cell membrane", "assay": "Induction of cell membrane depolarization of methicillin-resistant Staphylococcus aureus USA 3390 persisters assessed as increase in fluorescence intensity at 4 to 8 ug/ml measured at 10 mins by SYTOX green assay relative to control", "type": "cell membranes", "settings": "dose 4-8 µg/ml"}, "[35]": {"tested_on": "Staphylococcus aureus", "assay": "Bactericidal activity against methicillin-resistant Staphylococcus aureus USA 3390 assessed as reduction in CFU at 2 times of MIC concentration measured upto 4 hrs by time-kill kinetics assay", "type": "functional"}, "[36]": {"tested_on": "Escherichia coli", "assay": "Antibacterial activity against Escherichia coli 53328 assessed as inhibition of bacterial growth measured after 18 hrs by microplate reader", "type": "functional", "settings": "read-out: MIC100"}, "[37]": {"tested_on": "Staphylococcus aureus", "assay": "Bactericidal activity against methicillin-resistant Staphylococcus aureus USA 3390 assessed as reduction in CFU at 1 times of MIC concentration measured for short time by time-kill kinetics assay", "type": "functional, organism-based"}}, "note": "Active and inactive are the calls of the source. No cut-off for these calls is given here.", "data": [{"smiles": "Cc1cc(OC(=O)CCCCC[P+](c2ccccc2)(c2ccccc2)c2ccccc2)c(C(C)C)cc1-c1ccccc1.[Br-]", "values": [{"measurement": "Activity", "setting": "[1]", "result": "Tde"}, {"measurement": "Ratio", "setting": "[2]", "result": 4}, {"measurement": "Activity", "setting": "[3]", "result": "Active"}, {"measurement": "Activity", "setting": "[4]", "result": "Active"}, {"measurement": "Activity", "setting": "[5]", "result": "Active"}, {"measurement": "MIC", "setting": "[6]", "result": 32, "unit": "µg/mL"}, {"measurement": "Activity", "setting": "[7]", "result": "Non-Toxic"}, {"measurement": "Activity", "setting": "[8]", "result": "Active"}, {"measurement": "MIC", "setting": "[9]", "result": 64, "unit": "µg/mL"}, {"measurement": "Activity", "setting": "[10]", "result": 99.99, "unit": "%"}, {"measurement": "Activity", "setting": "[11]", "result": "Active"}, {"measurement": "Activity", "setting": "[12]", "result": "Active"}, {"measurement": "Activity", "setting": "[13]", "result": "Active"}, {"measurement": "Activity", "setting": "[14]", "result": "Active"}, {"measurement": "Activity", "setting": "[15]", "result": "Active"}, {"measurement": "fold change (FC)", "setting": "[16]", "result": 10}, {"measurement": "MIC", "setting": "[17]", "result": 8, "unit": "µg/mL"}, {"measurement": "Activity", "setting": "[18]", "result": "Active"}, {"measurement": "Activity", "setting": "[19]", "result": ">=2 log10CFU/ml"}, {"measurement": "MIC", "setting": "[20]", "result": 16, "unit": "µg/mL"}, {"measurement": "MIC", "setting": "[21]", "result": 8, "unit": "µg/mL"}, {"measurement": "IC50 at 72 h", "setting": "[22]", "result": 34.3, "unit": "µg/mL"}, {"measurement": "Activity", "setting": "[23]", "result": "Active"}, {"measurement": "MIC", "setting": "[24]", "result": 8, "unit": "µg/mL"}, {"measurement": "Activity", "setting": "[25]", "result": "Active"}, {"measurement": "Activity", "setting": "[26]", "result": "Active"}, {"measurement": "Activity", "setting": "[27]", "result": "Active"}, {"measurement": "Activity", "setting": "[28]", "result": "Dose-Dependent Effect"}, {"measurement": "Activity", "setting": "[29]", "result": "inactive"}, {"measurement": "Activity", "setting": "[30]", "result": 99.999, "unit": "%"}, {"measurement": "Activity", "setting": "[31]", "result": "Active"}, {"measurement": "Activity", "setting": "[32]", "result": "Active"}, {"measurement": "MIC", "setting": "[33]", "result": 8, "unit": "µg/mL"}, {"measurement": "Activity", "setting": "[34]", "result": "Active"}, {"measurement": "Activity", "setting": "[35]", "result": ">=2 log10CFU/ml"}, {"measurement": "MIC", "setting": "[36]", "result": 8, "unit": "µg/mL"}, {"measurement": "Activity", "setting": "[37]", "result": "Active"}]}]}
